Data on two compounds can be found in ChEMBL document CHEMBL1151047, “NS 257 (1,2,3,6,7,8-hexahydro-3(hydroxyimino)-N,N,7-trimethyl-2-oxobenzo[2,1-b:3,4-c']dipyrrole-5-sulfonamide) is a potent, systemically active ampa receptor antagonist” (Bioorg Med Chem Lett, 1994).

As usually defined, the IC50 is the point on the concentration scale where inhibition reaches its midpoint. A higher IC50 goes with lower potency. Broadly, the ED50 is the dose at which the effect has come halfway, by size or by number of responders. A low value points to greater potency.

Assay [1] in a line: Compound was tested for neuronal damage produced by application of 500 uM kainate. Type of assay: functional.
For assay [2], the target named is Glutamate receptor ionotropic, NMDA 1 (Rattus norvegicus, UniProt P35439). Put plainly: Binding affinity towards glycine binding site of NMDA receptor to rat cortical membrane using [3H]glycine as radioligand.
In assay [3] the target is Glutamate receptor ionotropic, kainate. The experiment in a line: Binding affinity towards kainate receptor to rat cortical membrane using [3H]kainate as radioligand.
A short description of assay [4]: Inhibitory activity against lactate dehydrogenase release was determined. The format is functional.
The target of assay [5] is Glutamate receptor ionotropic, AMPA (Rattus norvegicus, UniProt P19490+P19491+P19492+P19493). The experiment in a line: Binding affinity towards AMPA receptor to rat cortical membrane using [3H]AMPA as radioligand.
The subject of another assay is Mus musculus. The experiment in a line: Ability to block the AMPA-induced convulsant effects in mice upon intracerebroventricular injection. Type of assay: functional. Particulars: central.
The target of the next assay is Glutamate NMDA receptor. The experiment in a line: Binding affinity towards glutamate binding site of NMDA receptor to rat cortical membrane using NMDA sensitive [3H]-glutamate as radioligand.

On to `CN1Cc2c(S(=O)(=O)N(C)C)cc3c(N=O)c(O)[nH]c3c2C1`, for which the IC50 in assay [1] is 10 µM; in assay [2] it was over 100 µM; in assay [3], 13 µM; in assay [4], 9 µM; in assay [5] it was 0.7 µM; at Glutamate NMDA receptor, 44 µM. The compound further returned an ED50 with Mus musculus of 10 mg/kg.

For the compound `NS(=O)(=O)c1cccc2c1c([N+](=O)[O-])cc1nc(O)c(O)nc12` [NBQX], the ED50 in the assay with Mus musculus was 10 mg/kg.
